Patent publication US9504669B2, “Spliceostatin analogs and methods for their preparation” (PFIZER INC., priority 2012, dated 2016)
pIC50: −log10 of the molar value.

Legend:
Type in all cases: cell-based
Details in all cases: free compounds (natural products and synthetic analogs), cell viability 96 hours after treatment
[1] = test system: MDA-MB-361-DYT2 (breast cancer) cells; assay: In vitro cell assay (MTS cell viability), MDA-MB-361-DYT2
Procedure: (§1) Target expressing (BT474 (breast cancer), N87 (gastric cancer), HCC1954 (breast cancer), MDA-MB-361-DYT2 (breast cancer)) or non-expressing (MDA-MB-468) cells were seeded in 96-well cell culture plates for 24 hours before treatment. Cells were treated with 3-fold serially diluted antibody-drug conjugates or free compounds (i.e., no antibody conjugated to the drug) in duplicate at 10 concentrations. Cell viability was determined by CellTiter 96® AQueous One Solution Cell Proliferation MTS Assay (Promega, Madison Wis.) 96 hours after treatment. Relative cell viability was determined as percentage of untreated control. IC50 values were calculated using a four parameter logistic model #203 with XLfit v4.2 (IDBS, Guildford, Surry, UK). The potency ranged upward from 0.0002 nm. Similar procedures and techniques were employed.

[2] = test system: BT474 (breast cancer) cells; assay: In vitro cell assay (MTS cell viability), BT474
Procedure: as §1

[3] = test system: N87 (gastric cancer) cells; assay: In vitro cell assay (MTS cell viability), N87
Procedure: as §1

Compound | pIC50 ([1]; 96 h) | pIC50 ([2]; Homo sapiens, BT-474) | pIC50 ([3]; 96 h) | pIC50 [1] | pIC50 [2] | pIC50 [3]
CC(=O)O[C@@H](C)/C=C\C(=O)N[C@@H]1C[C@H](C)[C@H](C/C=C(C)/C=C/[C@H]2O[C@H](CC(=O)NCc3cc(N)ccc3F)C[C@@]3(CO3)[C@@H]2O)O[C@@H]1C [#B92, (2S,3Z)-5-{[(2R,3R,5S,6S)-6-{(2E,4E)-5-[(3R,4R,5R,7S)-7-{2-[(5-amino-2-fluorobenzyl)amino]-2-oxoethyl}-4-hydroxy-1,6-dioxaspiro[2.5]oct-5-yl]-3-methylpenta-2,4-dien-1-yl}-2,5-dimethyltetrahydro-2H-pyran-3-yl]amino}-5-oxopent-3-en-2-yl acetate] | 8.21 | 8.64 | 8.82 |  |  | 
CC(=O)O[C@@H](C)/C=C\C(=O)N[C@@H]1C[C@H](C)[C@H](C/C=C(C)/C=C/[C@@H]2C[C@]3(CO3)C[C@@H](CC(=O)NCc3ccc(N)cc3)O2)O[C@@H]1C [#B100, (2S,3Z)-5-{[(2R,3R,5S,6S)-6-{(2E,4E)-5-[(3S,5S,7S)-7-{2-[(4-aminobenzyl)amino]-2-oxoethyl}-1,6-dioxaspiro[2.5]oct-5-yl]-3-methylpenta-2,4-dien-1-yl}-2,5-dimethyltetrahydro-2H-pyran-3-yl]amino}-5-oxopent-3-en-2-yl acetate] | 7.77 | 7.97 | 8.30 |  |  | 
CC(=O)O[C@@H](C)/C=C\C(=O)N[C@@H]1C[C@H](C)[C@H](C/C=C(C)/C=C/[C@@H]2C[C@]3(CO3)C[C@@H](CC(=O)N[C@H]3CC[C@H](N(C)C)CC3)O2)O[C@@H]1C (relative stereo) [#B87, (2S,3Z)-5-{[(2R,3R,5S,6S)-6-{(2E,4E)-5-[(3S,5S,7S)-7-(2-{[trans-4-(dimethylamino)cyclohexyl]amino}-2-oxoethyl)-1,6-dioxaspiro[2.5]oct-5-yl]-3-methylpenta-2,4-dien-1-yl}-2,5-dimethyltetrahydro-2H-pyran-3-yl]amino}-5-oxopent-3-en-2-yl acetate] |  |  |  | 8.46 | 8.92 | 9.13
CSCCN(C)C(=O)O[C@@H](C)/C=C\C(=O)N[C@@H]1C[C@H](C)[C@H](C/C=C(C)/C=C/[C@H]2O[C@H](CC(N)=O)C[C@@]3(CO3)[C@@H]2O)O[C@@H]1C [#B130, (2S,3Z)-5-{[(2R,3R,5S,6S)-6-{(2E,4E)-5-[(3R,4R,5R,7S)-7-(2-amino-2-oxoethyl)-4-hydroxy-1,6-dioxaspiro[2.5]oct-5-yl]-3-methylpenta-2,4-dien-1-yl}-2,5-dimethyltetrahydro-2H-pyran-3-yl]amino}-5-oxopent-3-en-2-yl methyl[2-(methylsulfanyl)ethyl]carbamate] | 8.35 | 8.82 | 8.53 |  |  | 
CSCCN(C)C(=O)C[C@@H]1C[C@@]2(CO2)C[C@@H](/C=C/C(C)=C/C[C@@H]2O[C@H](C)[C@H](NC(=O)/C=C\[C@H](C)OC(C)=O)C[C@@H]2C)O1 [#B102, (2S,3Z)-5-{[(2R,3R,5S,6S)-2,5-dimethyl-6-{(2E,4E)-3-methyl-5-[(3S,5S,7S)-7-(2-{methyl[2-(methylsulfanyl)ethyl]amino}-2-oxoethyl)-1,6-dioxaspiro[2.5]oct-5-yl]penta-2,4-dien-1-yl}tetrahydro-2H-pyran-3-yl]amino}-5-oxopent-3-en-2-yl acetate] | 7.48 | 7.97 | 8.11 |  |  | 
CC(=O)O[C@@H](C)/C=C\C(=O)N[C@@H]1C[C@H](C)[C@H](C/C=C(C)/C=C/[C@@H]2C[C@]3(CO3)C[C@@H](CC(=O)N(C)Cc3ccc(S(=O)(=O)N(C)C)cc3)O2)O[C@@H]1C [#B96, (2S,3Z)-5-{[(2R,3R,5S,6S)-6-{(2E,4E)-5-[(3S,5S,7S)-7-(2-{[4-(dimethylsulfamoyl)benzyl](methyl)amino}-2-oxoethyl)-1,6-dioxaspiro[2.5]oct-5-yl]-3-methylpenta-2,4-dien-1-yl}-2,5-dimethyltetrahydro-2H-pyran-3-yl]amino}-5-oxopent-3-en-2-yl acetate] | 7.50 | 7.64 | 7.91 |  |  | 
CC(=O)O[C@@H](C)/C=C\C(=O)N[C@@H]1C[C@H](C)[C@H](C/C=C(C)/C=C/[C@@H]2C[C@]3(CO3)C[C@@H](CC(=O)NCCO)O2)O[C@@H]1C [#B95, ((2S,3Z)-5-{[(2R,3R,5S,6S)-6-{(2E,4E)-5-[(3S,5S,7S)-7-{2-[(2-hydroxyethyl)amino]-2-oxoethyl}-1,6-dioxaspiro[2.5]oct-5-yl]-3-methylpenta-2,4-dien-1-yl}-2,5-dimethyltetrahydro-2H-pyran-3-yl]amino}-5-oxopent-3-en-2-yl acetate] |  |  |  | 7.95 | 8.89 | 8.97
CC(/C=C/[C@@H]1C[C@]2(CO2)C[C@@H](CC(N)=O)O1)=C\C[C@@H]1O[C@H](C)[C@H](NC(=O)/C=C/C(C)N)C[C@@H]1C (stereo partly drawn) [#B273, (2E)-4-amino-N-[(2R,3R,5S,6S)-6-{(2E,4E)-5-[(3S,5S,7S)-7-(2-amino-2-oxoethyl)-1,6-dioxaspiro[2.5]oct-5-yl]-3-methylpenta-2,4-dien-1-yl}-2,5-dimethyltetrahydro-2H-pyran-3-yl]pent-2-enamide] |  |  |  | < 6.00 |  | 6.22
COC(=O)C[C@@H]1C[C@@]2(CO2)[C@H](O)[C@@H](/C=C/C(C)=C/C[C@@H]2O[C@H](C)[C@H](NC(=O)/C=C\[C@H](C)OC)C[C@@H]2C)O1 [#B229, methyl [(3R,5S,7R,8R)-8-hydroxy-7-{(1E,3E)-5-[(2S,3S,5R,6R)-5-{[(2Z,4S)-4-methoxypent-2-enoyl]amino}-3,6-dimethyltetrahydro-2H-pyran-2-yl]-3-methylpenta-1,3-dien-1-yl}-1,6-dioxaspiro[2.5]oct-5-yl]acetate] | 8.04 |  | 8.44 |  |  | 
CC(=O)O[C@@H](C)/C=C\C(=O)N[C@@H]1C[C@H](C)[C@H](C/C=C(C)/C=C/[C@H]2O[C@H](CC(=O)N3CCCCN3)C[C@@]3(CO3)[C@@H]2O)O[C@@H]1C [#B179, (2S,3Z)-5-({(2R,3R,5S,6S)-6-[(2E,4E)-5-{(3R,4R,5R,7S)-4-hydroxy-7-[2-oxo-2-(tetrahydropyridazin-1(2H)-yl)ethyl]-1,6-dioxaspiro[2.5]oct-5-yl}-3-methylpenta-2,4-dien-1-yl]-2,5-dimethyltetrahydro-2H-pyran-3-yl}amino)-5-oxopent-3-en-2-yl acetate] | 8.89 |  | 9.52 |  |  | 
COC(=O)C[C@@H]1C[C@@]2(CO2)[C@H](OC)[C@@H](/C=C/C(C)=C/C[C@@H]2O[C@H](C)[C@H](NC(=O)/C=C\[C@H](C)O)C[C@@H]2C)O1 [#B264, methyl [(3R,5S,7R,8R)-7-{(1E,3E)-5-[(2S,3S,5R,6R)-5-{[(2Z,4S)-4-hydroxypent-2-enoyl]amino}-3,6-dimethyltetrahydro-2H-pyran-2-yl]-3-methylpenta-1,3-dien-1-yl}-8-methoxy-1,6-dioxaspiro[2.5]oct-5-yl]acetate] | < 7.00 |  | < 7.00 |  |  | 
CC(/C=C/[C@H]1O[C@H](CC(=O)NN)C[C@@]2(CO2)[C@@H]1O)=C\C[C@@H]1O[C@H](C)[C@H](NC(=O)/C=C\[C@H](C)O)C[C@@H]1C [#B209, (2Z,4S)—N-[(2R,3R,5S,6S)-6-{(2E,4E)-5-[(3R,4R,5R,7S)-7-(2-hydrazinyl-2-oxoethyl)-4-hydroxy-1,6-dioxaspiro[2.5]oct-5-yl]-3-methylpenta-2,4-dien-1-yl}-2,5-dimethyltetrahydro-2H-pyran-3-yl]-4-hydroxypent-2-enamide] | < 7.00 |  | 7.22 |  |  | 
CCCNC(=O)C[C@@H]1C[C@@](O)(CCl)C[C@@H](/C=C/C(C)=C/C[C@@H]2O[C@H](C)[C@H](NC(=O)/C=C\[C@H](C)OC(C)=O)C[C@@H]2C)O1 [#B285, (2S,3Z)-5-({(2R,3R,5S,6S)-6-[(2E,4E)-5-{(2S,4S,6S)-4-(chloromethyl)-4-hydroxy-6-[2-oxo-2-(propylamino)ethyl]tetrahydro-2H-pyran-2-yl}-3-methylpenta-2,4-dien-1-yl]-2,5-dimethyltetrahydro-2H-pyran-3-yl}amino)-5-oxopent-3-en-2-yl acetate] | 7.93 |  | 8.12 |  |  | 
COC(=O)C[C@@H]1C[C@@](O)(CCl)[C@H](O)[C@@H](/C=C/C(C)=C/C[C@@H]2O[C@H](C)[C@H](NC(=O)/C=C\[C@H](C)OC(C)=O)C[C@@H]2C)O1 [#B284, (1S,5R)-5-{(1E,3E)-5-[(2S,3S,5R,6R)-5-{[(2Z,4S)-4-(acetyloxy)pent-2-enoyl]amino}-3,6-dimethyltetrahydro-2H-pyran-2-yl]-3-methylpenta-1,3-dien-1-yl}-1,5-anhydro-3-C-(chloromethyl)-2-deoxy-1-(2-methoxy-2-oxoethyl)-D-erythro-pentitol] | 8.69 |  | 8.89 |  |  | 
COC(=O)C[C@@H]1C[C@@]2(CO2)[C@H](O)[C@@H](/C=C/C(C)=C/C[C@@H]2O[C@H](C)[C@H](NC(=O)/C=C\[C@H](C)O)C[C@@H]2C)O1 [#B235, methyl [(3R,5S,7R,8R)-8-hydroxy-7-{(1E,3E)-5-[(2S,3S,5R,6R)-5-{[(2Z,4S)-4-hydroxypent-2-enoyl]amino}-3,6-dimethyltetrahydro-2H-pyran-2-yl]-3-methylpenta-1,3-dien-1-yl}-1,6-dioxaspiro[2.5]oct-5-yl]acetate] | 7.43 |  | 7.78 |  |  | 
